Data taken from the supplement of paper PMC10307832.

How the values were obtained:
Test in all cases: relative viability (nuclei count vs DMSO), 5 days (fraction); higher = more cells survive
Carfilzomib + Phenformin = compound: CC(C)C[C@H](NC(=O)[C@H](CCc1ccccc1)NC(=O)CN1CCOCC1)C(=O)N[C@@H](Cc1ccccc1)C(=O)N[C@@H](CC(C)C)C(=O)[C@@]1(C)CO1 [Carfilzomib] + N=C(N)NC(=N)NCCc1ccccc1 [Phenformin] (partner 250 µM)
Outline: (§1)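 Relative viability divides the nuclei count in treated wells by that in vehicle wells. Lung cancer cell lines were seeded in 1536-well plates, dosed by pin tool the next day, and fixed and stained after 5 days in one step with final 0.05% Triton X-100, 1% formaldehyde and 1 ug/ml Hoechst. Dosing was a single drug or a fixed anchor-drug dose plus five library-drug doses (not always all listed) in √10 steps, and values are medians of duplicate plates imaged at 4×.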

Crizotinib + Bortezomib = compound: C[C@@H](Oc1cc(-c2cnn(C3CCNCC3)c2)cnc1N)c1c(Cl)ccc(F)c1Cl [Crizotinib] + CC(C)C[C@H](NC(=O)[C@H](Cc1ccccc1)NC(=O)c1cnccn1)B(O)O [Bortezomib] (partner 0.002 µM)
Outline: as §1

Olaparib + Palbociclib = compound: O=C(c1cc(Cc2n[nH]c(=O)c3ccccc23)ccc1F)N1CCN(C(=O)C2CC2)CC1 [Olaparib] + CC(=O)c1c(C)c2cnc(Nc3ccc(N4CCNCC4)cn3)nc2n(C2CCCC2)c1=O [Palbociclib] (partner 0.5 µM)
Outline: as §1

Olaparib + Pemetrexed = compound: O=C(c1cc(Cc2n[nH]c(=O)c3ccccc23)ccc1F)N1CCN(C(=O)C2CC2)CC1 [Olaparib] + Nc1nc2[nH]cc(CCc3ccc(C(=O)N[C@@H](CCC(=O)O)C(=O)O)cc3)c2c(=O)[nH]1 [Pemetrexed] (partner 0.2 µM)
Outline: as §1

Cell Line | relative viability (Carfilzomib + Phenformin; first compound 0.001 µM) | relative viability (Carfilzomib + Phenformin; first compound 0.003162 µM) | relative viability (Carfilzomib + Phenformin; first compound 0.01 µM) | relative viability (Carfilzomib + Phenformin; first compound 0.03162 µM) | relative viability (Carfilzomib + Phenformin; first compound 0.1 µM) | relative viability (Crizotinib + Bortezomib; first compound 0.01 µM) | relative viability (Crizotinib + Bortezomib; first compound 0.03162 µM) | relative viability (Crizotinib + Bortezomib; first compound 0.1 µM) | relative viability (Crizotinib + Bortezomib; first compound 0.3162 µM) | relative viability (Crizotinib + Bortezomib; first compound 1 µM) | relative viability (Olaparib + Palbociclib; first compound 0.08 µM) | relative viability (Olaparib + Palbociclib; first compound 0.253 µM) | relative viability (Olaparib + Palbociclib; first compound 2.53 µM) | relative viability (Olaparib + Palbociclib; first compound 8 µM) | relative viability (Olaparib + Pemetrexed; first compound 0.08 µM) | relative viability (Olaparib + Pemetrexed; first compound 0.253 µM) | relative viability (Olaparib + Pemetrexed; first compound 2.53 µM) | relative viability (Olaparib + Pemetrexed; first compound 8 µM)
HCC-827 | 0.37 | 0.44 | 0.428 | 0.394 | 0.279 | 0.887 | 1.06 | 1.14 | 0.999 | 0.931 | 0.534 | 0.494 | 0.474 | 0.387 | 0.27 | 0.275 | 0.253 | 0.261
HOP-62 | 0.749 | 0.694 | 0.415 | 0.232 | 0.0898 | 0.822 | 0.788 | 1.03 | 0.523 | 0.584 | 0.469 | 0.454 | 0.361 | 0.319 | 0.353 | 0.316 | 0.337 | 0.322
IA-LM |  |  |  |  |  | 0.848 | 0.754 | 0.735 | 0.744 | 0.704 |  |  |  |  |  |  |  | 
LC-2-ad | 0.567 | 0.668 | 0.612 | 0.453 | 0.181 | 1.06 | 1.07 | 1 |  | 1.04 | 0.472 | 0.451 | 0.493 | 0.399 | 0.25 | 0.252 | 0.28 | 0.276
LCLC-97TM1 | 0.423 | 0.401 | 0.497 | 0.302 | 0.147 | 0.641 | 0.601 | 1.09 | 0.435 | 0.519 | 0.24 | 0.226 | 0.206 | 0.166 | 0.209 | 0.209 | 0.2 | 0.141
LCLC-103H | 0.328 | 0.327 | 0.297 | 0.285 | 0.17 | 1.06 | 1.04 | 1.11 | 1.09 | 1.16 | 0.524 | 0.455 | 0.513 | 0.494 | 0.421 | 0.499 | 0.493 | 0.426
LK-2 | 0.628 | 0.584 | 0.158 | 0.119 | 0.182 |  |  |  |  |  | 0.697 | 0.723 | 0.888 | 0.697 | 0.298 | 0.304 | 0.257 | 0.327
LOU-NH91 | 0.724 | 0.806 | 0.543 | 0.215 | 0.221 | 0.457 | 0.465 | 0.451 | 0.484 | 0.458 | 0.55 | 0.538 | 0.526 | 0.533 | 0.389 | 0.366 | 0.381 | 0.343
LU99A | 0.921 | 0.806 | 0.721 | 0.757 | 0.263 | 1.1 | 1.14 | 1.14 | 1.07 | 1.04 | 0.45 | 0.392 | 0.31 | 0.323 | 0.187 | 0.212 | 0.161 | 0.148
NCI-H358 | 0.338 | 0.4 | 0.203 | 0.0604 | 0.0694 |  |  |  |  |  | 0.124 | 0.137 | 0.125 | 0.14 | 0.159 | 0.172 | 0.176 | 0.152
NCI-H522 | 0.697 | 0.719 | 0.668 | 0.515 | 0.401 |  |  |  |  |  | 1.14 | 0.859 | 0.87 | 0.889 | 1.05 | 0.931 | 0.833 | 1.04
NCI-H596 | 0.807 | 0.812 | 0.781 | 0.433 | 0.25 | 0.894 | 1.18 | 1.1 | 1.45 | 0.947 |  |  |  |  | 0.592 | 0.496 | 0.493 | 0.543
NCI-H727 | 0.559 | 0.626 | 0.573 | 0.256 | 0.182 | 0.569 | 0.806 | 1.01 | 0.962 | 0.988 | 0.655 | 0.601 | 0.618 | 0.561 |  |  |  | 
NCI-H1299 |  |  |  |  |  | 1.04 | 1.07 | 1 | 1.02 | 0.996 |  |  |  |  |  |  |  | 
NCI-H1395 | 0.448 | 0.457 | 0.441 | 0.298 | 0.314 |  |  |  |  |  | 0.649 | 0.611 | 0.6 | 0.499 | 0.8 | 0.565 | 0.564 | 0.497
NCI-H1563 | 0.673 | 0.681 | 0.61 | 0.661 | 0.48 | 0.744 | 0.859 | 0.857 | 0.779 | 0.832 |  |  |  |  | 0.91 | 0.76 | 0.834 | 0.686
NCI-H1623 | 0.5 | 0.612 | 0.725 | 0.19 | 0.414 |  |  |  |  |  |  |  |  |  |  |  |  | 
NCI-H1648 |  |  |  |  |  |  |  |  |  |  | 0.236 | 0.305 |  | 0.246 | 0.967 | 0.708 |  | 0.735
NCI-H1703 |  |  |  |  |  | 0.365 | 0.301 | 0.226 | 0.319 | 0.322 |  |  |  |  |  |  |  | 
NCI-H1944 | 0.187 | 0.2 | 0.202 | 0.204 | 0.139 |  |  |  |  |  | 0.34 | 0.335 | 0.316 | 0.271 | 0.639 | 0.529 | 0.496 | 0.561
NCI-H2170 | 0.423 | 0.457 | 0.427 | 0.411 | 0.232 |  |  |  |  |  | 0.427 | 0.395 | 0.411 | 0.315 | 0.259 | 0.331 | 0.265 | 0.245
NCI-H2342 | 0.652 | 0.521 | 0.715 | 0.671 | 0.352 |  |  |  |  |  | 0.532 | 0.503 | 0.471 | 0.474 | 0.806 | 0.751 | 0.753 | 0.761
SK-MES-1 | 0.655 | 0.745 | 0.635 | 0.551 | 0.146 |  |  |  |  |  | 0.376 | 0.278 | 0.325 | 0.254 | 0.982 | 0.91 | 0.853 | 0.768
SW 900 | 0.431 | 0.937 | 0.133 | 0.163 | 0.138 |  |  |  |  |  | 0.606 | 0.492 | 0.595 | 0.476 | 0.502 | 0.461 | 0.456 | 0.457
